From ChEMBL document CHEMBL1158287, “Identification of ent-16 beta, 17-dihydroxykauran-19-oic acid as an anti-HIV principle and isolation of the new diterpenoids annosquamosins A and B from Annona squamosa” (J Nat Prod, 1996)
Converted amounts (≈) assume the structure as drawn. The source made the active and inactive calls. The rule behind the calls is not given here.

What was measured:
[1] = system: Human immunodeficiency virus 1; assay: Antiviral activity against HIV1 3B replication in human H9 cells up to 100 ug/mL after 3 days by p24 antigen capture assay; assay type: functional, organism-based
[2] = Therapeutic index, ratio of inhibition of human H9 cells to EC50 for HIV1 3B; assay type: cell-based
[3] = system: Human immunodeficiency virus 1; assay: Antiviral activity against HIV1 3B replication in human H9 cells after 3 days by p24 antigen capture assay; assay type: functional, organism-based; conditions: Human immunodeficiency virus 1, 3B, H9, 72 h

Structure (SMILES) | Activity [1] | selectivity ratio [2] | EC50 [3]
C[C@@]12CCC[C@@](C)(C=O)[C@H]1CC[C@@]13C[C@@H](CC[C@H]12)[C@](O)(CO)C3 | inactive | – | –
C=C1C[C@@]23CC[C@H]4[C@@](C)(CCC[C@@]4(C)C(=O)O)[C@@H]2CC[C@@H]1C3 | inactive | – | –
C[C@@]12CCC[C@@](C)(C(=O)O)[C@H]1CC[C@@]13C[C@@H](CC[C@H]12)[C@](O)(CO)C3 | – | > 5 | 0.8 µg/mL (≈ 2.38 µM)
C[C@@]1(CO)CCC[C@]2(C)[C@@H]1CC[C@@]13C[C@H](CC[C@H]12)[C@](O)(CO)C3 | inactive | – | –
CC(=O)OC[C@]1(O)C[C@@]23CC[C@H]4[C@@](C)(CCC[C@@]4(C)C=O)[C@@H]2CC[C@H]1C3 | inactive | – | –
C[C@@]12CCC[C@@](C)(O)[C@H]1CC[C@@]13C[C@H](CC[C@H]12)[C@](O)(CO)C3 | inactive | – | –
C[C@@]12CCC[C@@](C)(C=O)[C@H]1CC[C@]13C[C@@H](CO)[C@@H](CC[C@H]12)C3 | inactive | – | –
CC(=O)OC[C@@H]1C[C@@]23CC[C@H]4[C@@](C)(CCC[C@@]4(C)C(=O)O)[C@@H]2CC[C@H]1C3 | inactive | – | –
C[C@@]12CCC[C@@](C)(C(=O)O)[C@H]1CC[C@]13CC(CO)[C@@H](CC[C@H]12)C3 (mixture of isomers) | inactive | – | –
C[C@@]12CCC[C@@](C)(O)[C@H]1CC[C@@]13C[C@H](CC[C@H]12)[C@H](C(=O)O)C3 | inactive | – | –
C[C@@]12CCC[C@@](C)(C(=O)O)[C@H]1CC[C@@]13C[C@H](CC[C@H]12)[C@@](O)(CO)C3 | inactive | – | –
C=C1C[C@@]23CC[C@@H]4[C@](C)(CO)CCC[C@@]4(C)[C@@H]2CC[C@H]1C3 | inactive | – | –
C[C@@]12CCC[C@@](C)(C=O)[C@H]1CC[C@@]13C[C@H](CC[C@H]12)[C@H](C(=O)O)C3 | inactive | – | –
